These results are taken from US9777054B2, “Soluble fibrin inhibitory peptides and uses thereof” (ENSION INC., priority 2006, dated 2017).

Entries after “also recorded” stand apart in the source; their conditions may differ. No end group written: not given here.

The subject of one experiment is A375 cells. Nature of the experiment: Monocyte adherence to tumor cells under flow conditions (FCS2 perfusion stage incubator). In kind it is cell-based, human. As to the method: Human peripheral blood monocytes, isolated by density centrifugation and adherence were labeled with the carbocyanine dye (DiI, C18; Molecular Probes, Eugene, Oreg.). They were passed across adherent soluble fibrin treated or untreated tumor cells at a shear force corresponding to that present in small blood capillaries for 1 h (FIGS. 7A and 7B).
The number of tumor cells and adherent monocytes were counted in the images and leukocyte adherence was expressed as the number of leukocytes per tumor cell.
Lyophilized murine anti-human monoclonal blocking antibodies directed against αLβ2 (clone 25.3) and CD54 (clone 84H10) were obtained from Beckman-Coulter (Miami, Fla.), as were purified immunoglobulin matched isotypic controls (IgG1 (mouse) Clone 679.1Mc7). Blocking monoclonal anti-£\M£]2 (clone ICRF44) was obtained from PharMingen (BD Biosciences, San Jose, Calif.). All antibody inhibition experiments were performed using pre-incubation of target cells with 5 μg antibody/106 cells. Experiments were performed in triplicate wells and the results were expressed as the mean+SD for three separate experiments).
To simulate the fluid shear stresses present in vivo, coverslips containing Calcein AM labeled, adherent A375 were loaded into the FCS2 stage incubator (Bioptechs Inc., Butler, Pa.) and mounted on the stage of a Leica DMIRB inverted fluorescence microscope equipped with a Hamamatsu Color Chilled 3CCD camera (C5810 model) attached to a computer for data acquisition.
The FCS2 incubator is a closed near-laminar flow, temperature-controlled perfusion chamber which facilitates direct observation and scanning of the cells on the coverslip during perfusion with solutions or cell suspensions. It was designed to maintain accurate thermal control and allow high-volume near-laminar flow perfusion. A fluid pathway was formed (Dimensions 0.5 mm×14 mm×25 mm) by separating the microaqueduct slide from the coverslip containing cells with a single silicone gasket with a rectangular bore, generating nearlaminar flow conditions during perfusion. The stage incubator was initially connected to a peristaltic pump on the afferent side using 0.062 inch bore S/P medical grade silicone tubing (Fisher Scientific, Suwanee, Ga.), with a three way in-line tap closed to the incubator inlet. The efferent side was connected to waste. After connection of the electronic temperature control, the coverslips were perfused with RPMI to briefly buffer the cells at 37° C. for fifteen minutes (flow rate of 0.5 ml/min). The inlet was then connected to the tube containing the appropriately treated monocyte suspension (3 mL). The efferent tubing was also connected to the same tube, and Di-I (Gant et al., 1992) labelled monocytes were recirculated across the tumor cells for 1 h, after which, the tubing was set up to the initial configuration and the cells were again washed with RPMI for 10 min to remove unbound monocytes.
Individual still images in five randomly chosen fields of view were captured and stored on the computer. The number of monocytes (red) and tumor cells (green) were counted in each field of view and the mean monocyte/tumor cell ratio was calculated. The wall shear stress was calculated using the momentum balance for a Newtonian fluid. The viscosity of water at 37° C. was used as an approximation of the viscosity of the buffer used (RPMI 1640; 0.007 poise). As described in the following equation, the wall shear stress experienced by the monolayer is equal to: T=3 μQ/2a^2b, where T=wall shear stress, μ=coefficient of viscosity (0.007 Poise), Q=volumetric flow rate (0.0083 cm3/s), a=half channel height (0.025 cm), and b=channel width (1.5 cm). The wall shear rate is given by T/μ. […]

A further experiment addresses T1, fibrinogen (Homo sapiens, UniProt P02679).
T1 construct: purchased American Diagnostica Inc., Greenwich, Conn
T1 sequence (P02679 27-437 isoform P02679-2 limits assumed): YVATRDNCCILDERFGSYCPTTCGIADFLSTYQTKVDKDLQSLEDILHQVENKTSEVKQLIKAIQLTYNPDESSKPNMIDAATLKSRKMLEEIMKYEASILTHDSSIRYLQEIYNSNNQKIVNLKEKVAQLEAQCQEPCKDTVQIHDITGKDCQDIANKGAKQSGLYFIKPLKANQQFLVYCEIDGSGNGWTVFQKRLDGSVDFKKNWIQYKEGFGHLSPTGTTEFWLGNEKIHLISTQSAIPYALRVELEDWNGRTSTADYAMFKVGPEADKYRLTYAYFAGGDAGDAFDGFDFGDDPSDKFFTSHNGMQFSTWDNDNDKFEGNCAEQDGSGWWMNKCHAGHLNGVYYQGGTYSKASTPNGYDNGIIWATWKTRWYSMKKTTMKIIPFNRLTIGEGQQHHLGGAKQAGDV
T1 sequence (P02671 20-629 partner limits assumed): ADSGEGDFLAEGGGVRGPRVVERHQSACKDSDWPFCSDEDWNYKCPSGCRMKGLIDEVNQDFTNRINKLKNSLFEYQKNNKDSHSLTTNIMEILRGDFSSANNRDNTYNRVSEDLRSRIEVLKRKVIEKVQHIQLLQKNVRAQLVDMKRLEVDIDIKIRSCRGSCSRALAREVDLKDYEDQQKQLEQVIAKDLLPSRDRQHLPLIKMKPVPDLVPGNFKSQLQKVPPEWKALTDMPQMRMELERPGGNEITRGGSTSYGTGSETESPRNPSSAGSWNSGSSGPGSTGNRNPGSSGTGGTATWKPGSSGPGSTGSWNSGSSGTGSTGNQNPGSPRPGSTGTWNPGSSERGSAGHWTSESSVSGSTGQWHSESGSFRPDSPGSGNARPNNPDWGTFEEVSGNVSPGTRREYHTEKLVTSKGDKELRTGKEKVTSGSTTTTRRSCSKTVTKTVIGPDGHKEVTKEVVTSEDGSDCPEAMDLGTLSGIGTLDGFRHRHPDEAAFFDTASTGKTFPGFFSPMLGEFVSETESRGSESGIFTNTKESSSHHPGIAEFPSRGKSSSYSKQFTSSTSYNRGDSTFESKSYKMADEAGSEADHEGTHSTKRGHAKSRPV
T1 sequence (P02675 31-491 partner): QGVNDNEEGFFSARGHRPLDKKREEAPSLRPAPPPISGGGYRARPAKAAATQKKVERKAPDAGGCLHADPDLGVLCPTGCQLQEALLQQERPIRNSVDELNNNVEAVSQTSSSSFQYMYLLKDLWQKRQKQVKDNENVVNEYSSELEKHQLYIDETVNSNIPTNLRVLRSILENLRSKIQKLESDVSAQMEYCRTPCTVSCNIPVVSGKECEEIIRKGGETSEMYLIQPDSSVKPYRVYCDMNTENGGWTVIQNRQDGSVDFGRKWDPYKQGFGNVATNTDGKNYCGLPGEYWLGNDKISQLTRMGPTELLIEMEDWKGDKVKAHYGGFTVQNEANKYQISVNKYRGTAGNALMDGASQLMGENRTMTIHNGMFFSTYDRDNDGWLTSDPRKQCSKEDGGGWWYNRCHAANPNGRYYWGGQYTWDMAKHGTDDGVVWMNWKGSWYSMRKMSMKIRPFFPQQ
Nature of the experiment: Thrombin induced clotting of purified fibrinogen. It is filed as biochemical. Conditions: fibrinogen 0.5 mg/ml, thrombin 0.125 U/ml, peptide 4 mmol/L, room temperature. Here is the method:
Experiments were performed to determine if the specific fibrin(ogen) adherence inhibitors also affected (1) fibrinogen clotting in the presence of thrombin, or (2) normal coagulation in recalcified plasma.
Thrombin (0.625 μl (stock 100 U/ml) was added to RPMI 1640 medium containing 25 μl (stock 10 mg/ml) […] or in the presence of 4 mmol/L specific peptide or peptide combination in a total volume of 1 ml. The tubes were left at room temperature and clotting was determined by observed gelation of the solution every 30 s, and the approximate clotting time was recorded. An additional control was also tested in which the fibrin polymerization inhibitor GPRP-NH2 was added to fibrinogen in the presence of P1-P4 prior to thrombin addition. The tube was left at room temperature to determine if clotting was observed.

[1] abbreviates: effector and tumor cells both pre-treated with single component of the sFn mixture.
Where [2] appears, read: sFn treated with single peptide, incubated with one cell type (P3 tumor cells / P4 monocytes), other cell type untreated.
Setting [3] is: one cell type treated with peptide only (P1 tumor cells / P2 monocytes), the other cell type with sFn.
[4] abbreviates: one cell type treated with single peptide then sFn (P1 A375 / P2 monocytes), other cell type with sFn (Bars 4, 5).

Consider “Gly-Pro-Arg-Pro-amide (GPRP-NH2) [reference compound]”, for which the “effect on monocyte adherence” value is “did not significantly inhibit adherence” in the experiment on A375 cells (effector and tumor cells both pre-treated with single component of the sFn mixture, listed as GPRP); “no significant (P>0.05 compared to untreated cell adherence) inhibition was observed” with A375 cells (effector and tumor cells both pre-treated with single component of the sFn mixture, listed as GPRPNH2). Also, the clotting time in the experiment with fibrinogen was greater than 15 min.

Take thrombin [reference compound]: the “effect on monocyte adherence” value in the experiment on A375 cells (setting [1]) is listed as “no significant (P>0.05 compared to untreated cell adherence) inhibition was observed; also recorded: did not significantly inhibit adherence”.

As to “KVILPRGGSVLVTC (CHAIN peptide comprising amino acids 8-21 on the ICAM-1 first immunoglobulin domain) [Peptide P3]”, in the experiment on A375 cells (setting [2]), the “inhibition of monocyte adherence” value was “little or no inhibition was observed”.

Regarding “NNQKIVNLKEKVAQLEA (CHAIN peptide comprising the cell-binding domain in soluble fibin.) [Peptide P1]”, the “effect on monocyte adherence” value with A375 cells (setting [3]) is “Inhibition was still observed; also recorded: inhibited adherence to a similar level to that of sFn treatment of both cells”. The “inhibition of monocyte adherence” value in the experiment with A375 cells (setting [4]) was “inhibition was still observed”.

With “KFGDPLGYEDVIPEADREG (CHAIN peptide comprising the soluble fibrin protein-binding domain in soluble fibin) [Peptide P4]”, the “inhibition of monocyte adherence” value in the experiment on A375 cells (sFn pre-treated with P4 and incubated with monocytes, tumor cells incubated with sFn (Bar 7)) is “no inhibition was observed”; in the experiment with A375 cells (setting [2]), “no inhibition was observed”.

Take “YKSMKKTTMKIIPFNRLTIF (CHAIN peptide comprising the cell-binding domain in soluble fibin.) [Peptide P2]”: the “effect on monocyte adherence” value with A375 cells (setting [3]) is recorded as “Inhibition was also observed; also recorded: inhibited adherence to a similar level to that of sFn treatment of both cells”. Moreover, in the experiment on A375 cells (setting [4]), the “inhibition of monocyte adherence” value is reported as “inhibition was still observed”.

For fibrinogen [reference compound], in the experiment on A375 cells (setting [1]), the “effect on monocyte adherence” value is reported as “no significant (P>0.05 compared to untreated cell adherence) inhibition was observed; also recorded: did not significantly inhibit adherence”.
